From patent publication US20250179052A1, “PYRIMIDINYL-OXY-QUINOLINE BASED HERBICIDAL COMPOUNDS” (SYNGENTA CROP PROTECTION AG, priority 2022, published 2025)

Experiments:
Details in all cases: 250 g/ha, evaluated after 13 days, five-point scale
AMAPA [1] = test: Pre-emergence herbicidal glasshouse test; type: in vivo, Amaranthus tuberculatus
[2] = test system: Echinochloa crus-galli (ECHCG); test: Pre-emergence herbicidal glasshouse test; type: in vivo
[3] = test system: Amaranthus retoflexus (AMARE); test: Pre-emergence herbicidal glasshouse test; type: in vivo
[4] = test system: Echinochloa crus-galli (ECHCG); test: Post-emergence herbicidal glasshouse test; type: in vivo
[5] = test system: Amaranthus retoflexus (AMARE); test: Post-emergence herbicidal glasshouse test; type: in vivo
[6] = test system: Ipomoea hederacea (IPOHE); test: Post-emergence herbicidal glasshouse test; type: in vivo
[7] = test system: Ipomoea hederacea (IPOHE); test: Pre-emergence herbicidal glasshouse test; type: in vivo
AMAPA [8] = test: Post-emergence herbicidal glasshouse test; type: in vivo, Amaranthus tuberculatus

SMILES | percentage damage caused to the plant, AMAPA (AMAPA [1]) | percentage damage caused to the plant, ECHCG [2] | percentage damage caused to the plant, AMARE [3] | percentage damage caused to the plant, ECHCG [4] | percentage damage caused to the plant, AMARE [5] | percentage damage caused to the plant, IPOHE [6] | percentage damage caused to the plant, IPOHE [7] | percentage damage caused to the plant, AMAPA (AMAPA [8])
FC(F)(F)c1ccc2c(Oc3ncc(Cl)cn3)ccc(Br)c2n1 [Compound 1.032] | 1 (1=0-20%) | 1 (1=0-20%) | 1 (1=0-20%) | 1 (1=0-20%) | 2 (2=21-40%) | 1 (1=0-20%) | 1 (1=0-20%) | 2 (2=21-40%)
Fc1cnc(Oc2ccc(Br)c3nc(C(F)(F)F)ccc23)nc1 [Compound 1.033] | 3 (3=41-60%) | 1 (1=0-20%) | 3 (3=41-60%) | 1 (1=0-20%) | 2 (2=21-40%) | 1 (1=0-20%) | 1 (1=0-20%) | 1 (1=0-20%)
FC(F)(F)c1ccc2c(Oc3ncc(Br)cn3)ccc(Br)c2n1 [Compound 1.034] | 1 (1=0-20%) | 1 (1=0-20%) | 1 (1=0-20%) | 1 (1=0-20%) | 1 (1=0-20%) | 1 (1=0-20%) | 1 (1=0-20%) | 1 (1=0-20%)
Cc1ccc(Oc2ncc(Cl)cn2)c2ccc(C(F)(F)F)nc12 [Compound 1.035] | 2 (2=21-40%) | 1 (1=0-20%) | 2 (2=21-40%) | 1 (1=0-20%) | 3 (3=41-60%) | 2 (2=21-40%) | 1 (1=0-20%) | 3 (3=41-60%)
Cc1cnc(Oc2ccc(C)c3nc(C(F)(F)Cl)ncc23)nc1 [Compound 1.036] | 3 (3=41-60%) | 1 (1=0-20%) | 4 (4=61-80%) | 1 (1=0-20%) | 2 (2=21-40%) | 1 (1=0-20%) | 1 (1=0-20%) | 3 (3=41-60%)
Cc1cnc(Oc2ccc(Cl)c3nc(C(F)(F)Cl)ncc23)nc1 [Compound 1.037] | 4 (4=61-80%) | 1 (1=0-20%) | 5 (5=81-100%) | 1 (1=0-20%) | 2 (2=21-40%) | 1 (1=0-20%) | 1 (1=0-20%) | 2 (2=21-40%)
Cc1nc(C(F)(F)Cl)nc2cccc(Oc3ncc(F)cn3)c12 [Compound 1.038] | 5 (5=81-100%) | 4 (4=61-80%) | 5 (5=81-100%) | 3 (3=41-60%) | 4 (4=61-80%) | 3 (3=41-60%) | 5 (5=81-100%) | 5 (5=81-100%)
FC(F)c1ncc2c(Oc3ncc(Br)cn3)ccc(Cl)c2n1 [Compound 1.039] | 1 (1=0-20%) | 1 (1=0-20%) | 1 (1=0-20%) | 1 (1=0-20%) | 2 (2=21-40%) | 1 (1=0-20%) | 1 (1=0-20%) | 2 (2=21-40%)
Fc1cnc(Oc2cccc3nc(C(F)(F)F)ccc23)nc1 [Compound 1.042] | 5 (5=81-100%) | 5 (5=81-100%) | 5 (5=81-100%) | 4 (4=61-80%) | 5 (5=81-100%) | 4 (4=61-80%) | 5 (5=81-100%) | 5 (5=81-100%)
Fc1cnc(Oc2ccc(Cl)c3nc(C(F)(F)Cl)ncc23)nc1 [Compound 1.043] | 4 (4=61-80%) | 1 (1=0-20%) | 4 (4=61-80%) | 1 (1=0-20%) | 3 (3=41-60%) | 2 (2=21-40%) | 1 (1=0-20%) | 3 (3=41-60%)
Fc1cnc(Oc2ccc(Cl)c3nc(C(F)F)ncc23)nc1 [Compound 1.046] | 4 (4=61-80%) | 1 (1=0-20%) | 5 (5=81-100%) | 1 (1=0-20%) | 2 (2=21-40%) | 2 (2=21-40%) | 1 (1=0-20%) | 1 (1=0-20%)
Cc1ccc(Oc2ncc(F)cn2)c2cnc(C(F)(F)Cl)nc12 [Compound 1.049] | 1 (1=0-20%) | 1 (1=0-20%) | 1 (1=0-20%) | 1 (1=0-20%) | 2 (2=21-40%) | 2 (2=21-40%) | 1 (1=0-20%) | 3 (3=41-60%)
Cc1nc(C(F)F)nc2cccc(Oc3ncc(Br)cn3)c12 [Compound 1.051] | 1 (1=0-20%) | 1 (1=0-20%) | 1 (1=0-20%) | 1 (1=0-20%) | 1 (1=0-20%) | 1 (1=0-20%) | 1 (1=0-20%) | 1 (1=0-20%)
Cc1nc(C(F)F)nc2cccc(Oc3ncc(F)cn3)c12 [Compound 1.052] | 1 (1=0-20%) | 2 (2=21-40%) | 2 (2=21-40%) | 1 (1=0-20%) | 1 (1=0-20%) | 2 (2=21-40%) | 1 (1=0-20%) | 1 (1=0-20%)
FC(F)c1ncc2c(Oc3ncc(Cl)cn3)ccc(Cl)c2n1 [Compound 1.054] | 5 (5=81-100%) | 2 (2=21-40%) | 5 (5=81-100%) | 1 (1=0-20%) | 2 (2=21-40%) | 1 (1=0-20%) | 1 (1=0-20%) | 2 (2=21-40%)
FC(F)(Cl)c1ncc2c(Oc3ncc(Br)cn3)cccc2n1 [Compound 1.055, 5-(5-bromopyrimidin-2-yl)oxy-2-[chloro(difluoro)methyl]quinazoline] | 5 (5=81-100%) | 4 (4=61-80%) | 5 (5=81-100%) | 2 (2=21-40%) | 2 (2=21-40%) | 2 (2=21-40%) | 2 (2=21-40%) | 3 (3=41-60%)
